The experiment addresses T1, CYP11A1 (Homo sapiens, UniProt P05108).
T1 construct: human H295R adrenocortical carcinoma cell line was used as source of enzyme; endogenous in cells; host or cells: H295R human adrenocortical carcinoma cells
T1 sequence (P05108 40-521): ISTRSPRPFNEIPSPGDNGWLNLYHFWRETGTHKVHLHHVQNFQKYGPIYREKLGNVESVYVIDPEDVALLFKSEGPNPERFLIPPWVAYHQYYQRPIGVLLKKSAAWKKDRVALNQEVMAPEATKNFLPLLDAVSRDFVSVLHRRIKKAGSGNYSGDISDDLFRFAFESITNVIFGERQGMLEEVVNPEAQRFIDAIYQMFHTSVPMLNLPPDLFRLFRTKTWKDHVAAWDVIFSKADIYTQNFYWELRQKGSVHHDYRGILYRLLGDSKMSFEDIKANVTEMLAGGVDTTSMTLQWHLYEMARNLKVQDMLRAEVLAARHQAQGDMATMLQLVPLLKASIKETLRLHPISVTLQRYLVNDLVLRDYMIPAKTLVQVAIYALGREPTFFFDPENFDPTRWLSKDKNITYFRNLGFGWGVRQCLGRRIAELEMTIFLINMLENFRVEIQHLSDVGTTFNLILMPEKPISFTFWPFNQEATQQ
The experiment is described as follows: CYP11A1 inhibition, isocaproic acid release assay (IARA) in H295R cells. The class given is cell-based. As to conditions: human H295R adrenocortical carcinoma cell line, three days, 3 nM [24,25-3H]-labelled cholesterol; read-out: IC50 on CYP11A1 inhibition (Group). As for the experimental part: The ability of the test compounds to inhibit conversion of cholesterol to pregnenolone and isocaproic acid was measured by modification of isocaproic acid release assay (IARA) described by Ruangwises et al. (Biology of Reproduction 1991; 45(1):143-50) except that human H295R adrenocortical carcinoma cell line was used as source of enzyme and extraction was done with dextran-coated charcoal suspension (Isomaa, V. et al., Endocrinology 1982; 111(3):833-843). […] To determine the half maximal inhibitory concentration (IC50) of the test compounds on CYP11A1 inhibition, the cells were treated for three days with increasing concentrations of the test compounds in the presence of 3 nM [24,25-3H]-labelled cholesterol (American Radiolabelled Chemicals). The final DMSO concentration was 1%. Cell culture medium was extracted with dextran-coated charcoal suspension and the radiolabelled isocaproic acid was determined by mixing 100 μl of supernatant fraction in 200 μl of scintillation fluid (OptiPhase SuperMix, Perkin Elmer). Radioactivity was measured using a Microbeta scintillation counter (1450 MicroBeta Trilux, Wallac). All the test compounds were studied at 10 concentrations in duplicates.

As a reminder, the IC50 is the concentration that gives 50% inhibition. On to `CS(=O)(=O)c1cc(CN2Cc3ccc(-c4ncco4)cc3C2)ccc1OCC1CCN(S(C)(=O)=O)CC1` [Compound 13b, 2-(2-(3-(Methylsulfonyl)-4-((1-(methylsulfonyl)piperidin-4-yl)methoxy)-benzyl)isoindolin-5-yl)oxazole], for which the IC50 was < 100 nM. For the molecule `CCS(=O)(=O)c1cc(CN2Cc3ccc(C(F)(F)F)cc3C2)ccc1OCC1CCN(S(C)(=O)=O)CC1` [Compound 27, 2-(3-(Ethylsulfonyl)-4-((1-(methylsulfonyl)piperidin-4-yl)methoxy)benzyl)-5-(trifluoromethyl)isoindoline], the IC50 is < 100 nM. For `CCCCS(=O)(=O)c1cc(CN2Cc3ccccc3C2)ccc1OCC1CCN(S(C)(=O)=O)CC1` [Compound 28, 2-(3-(Butylsulfonyl)-4-((1-(methylsulfonyl)piperidin-4-yl)methoxy)benzyl)iso-indoline], the IC50 was < 100 nM.

For the molecule `CS(=O)(=O)c1cc(CN2Cc3ccccc3C2)ccc1OCc1ccc(C(=O)N=S(C)(C)=O)cc1` [Compound 78, N-(Dimethyl(oxo)-λ^6-sulfaneylidene)-4-((4-(isoindolin-2-ylmethyl)-2-(methyl-sulfonyl)phenoxy)methyl)benzamide], the IC50 is < 100 nM.

Turning to `CS(=O)(=O)N1CCC(COc2coc(CN3Cc4ccc(-c5ccon5)cc4C3)cc2=O)CC1` [Compound 5, 2-((5-(Isoxazol-3-yl)isoindolin-2-yl)methyl)-5-((1-(methylsulfonyl)piperidin-4-yl)methoxy)-4H-pyran-4-one], the IC50 is < 100 nM.

For `CS(=O)(=O)c1cc(CN2Cc3ccc(-c4cnco4)cc3C2)ccc1OCC1CCN(S(C)(=O)=O)CC1` [Compound 13a, 5-(2-(3-(Methylsulfonyl)-4-((1-(methylsulfonyl)piperidin-4-yl)methoxy)-benzyl)isoindolin-5-yl)oxazole], the half-maximal inhibitory concentration (IC50) lay within 101 to 200 nM. With `CC[S@](=N)(=O)c1ccc(COc2ccc(CN3Cc4ccccc4C3)cc2S(C)(=O)=O)cc1` [Compound 97, (S)-Ethyl(imino)(4-((4-(isoindolin-2-ylmethyl)-2-(methylsulfonyl)phenoxy)-methyl)phenyl)-λ^6-sulfanone], the IC50 is < 100 nM. Consider `O=c1cc(CN2CCc3ccccc3C2)occ1OCC1CC2(C1)CN(c1ncccn1)C2` [Compound 50, 2-((3,4-Dihydroisoquinolin-2(1H)-yl)methyl)-5-((2-(pyrimidin-2-yl)-2-azaspiro-[3.3]heptan-6-yl)methoxy)-4H-pyran-4-one], for which the half-maximal inhibitory concentration (IC50) is 201 to 2000 nM. The figure for `CS(=O)(=O)c1cc(CN2Cc3ccccc3C2)ccc1OCC1CCN(S(=O)(=O)C2COC2)CC1` [Compound 75, 2-(3-(Methylsulfonyl)-4-((1-(oxetan-3-ylsulfonyl)piperidin-4-yl)methoxy)-benzyl)isoindoline] is < 100 nM. With `CC(C)(O)c1ccc(COc2coc(CN3Cc4ccccc4C4(CCCC4)C3)cc2=O)cc1` [Compound 104, 2-((1′H-Spiro[cyclopentane-1,4′-isoquinolin]-2′(3′H)-yl)methyl)-5-((4-(2-hydroxypropan-2-yl)benzyl)oxy)-4H-pyran-4-one], the IC50 lay within 101 to 200 nM. For `CS(=O)(=O)c1ccc(COc2ccc(CN3Cc4ccccc4C3)cc2S(C)(=O)=O)cc1` [Compound 82, 2-(3-(Methylsulfonyl)-4-((4-(methylsulfonyl)benzyl)oxy)benzyl)isoindoline], the IC50 is < 100 nM. On to `N#Cc1ccc(N2CC3(CC(COc4coc(CN5CCc6ccccc6C5)cc4=O)C3)C2)nc1` [Compound 51, 6-(6-(((6-((3,4-Dihydroisoquinolin-2(1H)-yl)methyl)-4-oxo-4H-pyran-3-yl)oxy)-methyl)-2-azaspiro[3.3]heptan-2-yl)nicotinonitrile], for which the IC50 lay in the range of 201 to 2000 nM.

On to `CS(=O)(=O)c1cc(CN2Cc3ccccc3C2)ccc1OCC1CCN(S(C)(=O)=O)CC1` [Compound 65, 2-(3-(Methylsulfonyl)-4-((1-(methylsulfonyl)piperidin-4-yl)methoxy)benzyl)-isoindoline], for which the IC50 is < 100 nM. On to `CN(C)C(=O)[C@H]1CC[C@H](COc2ccc(CN3Cc4ccccc4C3)cc2S(C)(=O)=O)CC1` [Compound 79, (1r,4r)-4-((4-(Isoindolin-2-ylmethyl)-2-(methylsulfonyl)phenoxy)methyl)-N,N-dimethylcyclohexane-1-carboxamide], for which the IC50 is < 100 nM. As to `CS(=O)(=O)N1CCC(COc2coc(C(N3Cc4ccccc4C3)C(F)(F)F)cc2=O)CC1` (stereo not drawn) [Compound 20, 5-((1-(Methylsulfonyl)piperidin-4-yl)methoxy)-2-(2,2,2-trifluoro-1-(isoindolin-2-yl)ethyl)-4H-pyran-4-one], the IC50 is 201 to 2000 nM. As for `CC(C)C(=O)N1CCC(COc2ccc(CN3Cc4ccccc4C3)cc2S(C)(=O)=O)CC1` [Compound 73, 1-(4-((4-(Isoindolin-2-ylmethyl)-2-(methylsulfonyl)phenoxy)methyl)piperidin-1-yl)-2-methylpropan-1-one], the IC50 is < 100 nM.

For `CS(=O)(=O)N1CCC(COc2coc(CN3Cc4ccc(-c5ncco5)cc4C3)cc2=O)CC1` [Compound 3, 5-((1-(Methylsulfonyl)piperidin-4-yl)methoxy)-2-((5-(oxazol-2-yl)isoindolin-2-yl)methyl)-4H-pyran-4-one], the IC50 is < 100 nM. On to `CS(=O)(=O)c1cc(CN2Cc3ccccc3C2)ccc1OCC1CCC(C(=O)N2CCC2)CC1` (stereo not drawn) [Compound 80, Azetidin-1-yl(4-((4-(isoindolin-2-ylmethyl)-2-(methylsulfonyl)phenoxy)-methyl)cyclohexyl)methanone], for which the IC50 fell in the range of 101 to 200 nM.

In the case of `CCC(=O)N1CCC(COc2ccc(CN3Cc4ccccc4C3)cc2S(C)(=O)=O)CC1` [Compound 70], the IC50 lay within 101 to 200 nM.

Regarding `CS(=O)(=O)c1ccc(COc2ccc(CN3Cc4ccccc4C3)cc2S(C)(=O)=O)cc1F` [Compound 81, 2-(4-((3-Fluoro-4-(methylsulfonyl)benzyl)oxy)-3-(methylsulfonyl)benzyl)-isoindoline], the IC50 lay in the range of 101 to 200 nM. Turning to `CC(C)(C)OC(=O)N1CCC2(CC1)CC(COc1coc(CN3CCc4ccccc4C3)cc1=O)C2` [Compound 35, tert-Butyl 2-(((6-((3,4-dihydroisoquinolin-2(1H)-yl)methyl)-4-oxo-4H-pyran-3-yl)oxy)methyl)-7-azaspiro[3.5]nonane-7-carboxylate], the IC50 was 201 to 2000 nM.

Regarding `CS(=O)(=O)c1cc(C(N2Cc3ccccc3C2)C(F)(F)F)ccc1OCC1CCN(S(C)(=O)=O)CC1` (stereo not drawn) [Compound 21, 2-(2,2,2-Trifluoro-1-(3-(methylsulfonyl)-4-((1-(methylsulfonyl)piperidin-4-yl)methoxy)phenyl)ethyl)isoindoline], the IC50 lay in the range of 101 to 200 nM. `CCS(=O)(=O)c1ccc(COc2ccc(CN3Cc4ccccc4C3)cc2S(C)(=O)=O)cc1` [Compound 76, 2-(4-((4-(Ethylsulfonyl)benzyl)oxy)-3-(methylsulfonyl)benzyl)isoindoline]: the IC50 was < 100 nM. With `CS(=O)(=O)N1CCC(COc2coc(CN3Cc4ccc(-c5ccno5)cc4C3)cc2=O)CC1` [Compound 4, 2-((5-(Isoxazol-5-yl)isoindolin-2-yl)methyl)-5-((1-(methylsulfonyl)piperidin-4-yl)methoxy)-4H-pyran-4-one], the IC50 was 101 to 200 nM.

Values taken from patent publication US20230192677A1, “CYP11A1 INHIBITORS” (ORION CORPORATION, priority 2020, published 2023).
